Measured values published in patent US11414378B2, “Anti-fungals compounds targeting the synthesis of fungal sphingolipids” (THE RESEARCH FOUNDATION FOR THE STATE UNIVERSITY OF NEW YORK, priority 2017, dated 2022).
Converted amounts (≈) assume the structure as drawn. One block for each compound: values may come before it.

Key:
[1] = test system: C. neoformans cells; test: In vitro killing activity (K100) assay; type: cell-based, Cryptococcus neoformans; conditions: Cryptococcus neoformans; minimum concentration that kills 100% of C. neoformans cells in 48 h
Protocol: C. neoformans cells from a culture grown overnight were washed in PBS and resuspended in YNB buffered with HEPES at pH 7.4. The cells were counted, and 2×10^4 cells were incubated with different concentration of compounds in a final volume of 10 ml with a final concentration of 0.5% DMSO. The tubes were then incubated at 37° C. with 5% CO2 on a rotary shaker at 200 rpm. Aliquots were taken at time points and diluted, and […] were plated onto Yeast Extract-Peptone-Dextrose (YPD) plates. YPD plates were incubated in a 30° C. incubator and after 48 h, the numbers of CFU were counted and recorded.

[2] = test system: C. neoformans; test: In vitro susceptibility (MIC80) assay; type: cell-based; conditions: Cryptococcus neoformans; lowest concentration that inhibited 80% of growth; YNB pH 7.0, HEPES, 37° C., 5% CO2
Protocol: MICs was determined following the methods of the Clinical and Laboratory Standards Institutes (CLSI) with modifications. Yeast Nitrogen Base (YNB) medium (pH 7.0, 0.2% glucose) buffered with HEPES was used for MIC studies. […] The compound was serially diluted from 16 to 0.03 μg/ml, in a 96-well plate. The inoculum was prepared as described in the CLSI protocol M27A3 guidelines. The plates were incubated at 37° C. with 5% CO2 for 24 to 72 h and the optical density was measure at 450 nm. The MICs was determined as the lowest concentration of the compound that inhibited 80% of growth compared to the control.

[3] = test system: C. neoformans; test: In vivo efficacy evaluation (survival study) in an animal model; design: species or system CBA/J mice; conditions: 20 mg/kg/day orally (gavage); mice infected intranasally with 5×10^5 C. neoformans cells
Protocol: For survival study, 4-week old CBA/J (Envigo) male mice were used. They were divided as ten mice for each treatment or control group. Mice were infected intranasally with 20 μl of a suspension containing 5×10^5 C. neoformans cells and subsequently treated orally with 20 mg/kg/day of compound A15 and fluconazole as drug control in a final volume of 100 μl of PEG30% in a saline buffer. The untreated control group mice received 100 μl of PEG30% in a saline buffer. Gavage was used as route of administration. At the end of the experiment, 80% of the mice treated with compound A15 survived whereas, only 30% of the mice treated with fluconazole survived. Mice were fed ad libitum and monitored every day for discomfort and meningitis signs. Mice showing weight loss, lethargy, tremor or inability to reach food or water were sacrificed and survival was counted until that day (see FIG. 2).

[4] = test system: A549; test: A549 toxicity; type: cell-based; conditions: Tables 1-3
[5] = test system: C. neoformans; test: In vitro susceptibility testing (MIC / IC80); type: cell-based, Cryptococcus neoformans; conditions: Cryptococcus neoformans; Tables 1-3
Protocol: Minimal inhibitory concentration (MIC) was determined following the methods of the Clinical Laboratory Standards Institutes (CLSI) with modifications. MIC studies used either RPMI or YNB medium (pH 7.0, 0.2% glucose) buffered with HEPES. […] The compound was serially diluted from 32 to 0.03 μg/ml or 19 to 0.02 μg/ml respectively in a 96 well plate with the respective medium. The yeast inoculum was prepared as described in the CLSI protocol M27-A3 guidelines. Plates were incubated at 37° C. and in the presence of 5% CO2 for 24-96 hours. Against all fungal isolates used in the initial susceptibility screen, the MICs were determined as the lowest concentration of the drug that inhibited 50% of growth compared to the control. MIC80 and MIC100, whose drug concentrations inhibited 80% and 100% growth compared to the control respectively, were also determined. For antibacterial activity, E. coli DH5a and P. aeruginosa PA14 were grown overnight in Luria Bertani (LB) broth at 30° C. The cells were washed with PBS and counted. Then, 300 μL from 2×10^8 cells/mL was spreaded onto LB agar plate using a hockey stick glass spreader. The plate was dried, and wells were punched out using a cut tip. Fifty microliters of different drug concentration was added to the well. The plate was then incubated at 30° C. for 24 hours.

[6] = test system: C. neoformans; test: In vitro killing assay (killing curve, Kapp, 48H killing); type: cell-based, Cryptococcus neoformans; conditions: 48H
Protocol: From an overnight culture, C. neoformans cells were washed in PBS, resuspended in YNB buffered with HEPES at pH 7.4. Cells were counted and 2×10^4 cells were incubated with either 1, 2 or 4 μg/ml of compound in a final volume of 10 ml. Tubes were then incubated at 37° C. in the presence of 5% CO2 on a rotary shaker at 200 rpm. At the illustrated time points, aliquots were taken and diluted and 100 μL was plated onto yeast peptone dextrose (YPD) plates. YPD plates were incubated in a 30° C. incubator and, after 72 hours, colony forming units (CFU) were counted and recorded.

[7] = test system: HepG2; test: HepG2 toxicity; type: cell-based; conditions: Tables 1-3

Compound: COCc1ccc(C(=O)N/N=C/c2cc(Br)cc(Br)c2O)cc1 [Compound A15, 4-Methoxymethyl-N′-(3,5-dibromo-2-hydroxybenzylidene)benzohydrazide]
MFC [1]: 0.03 µg/mL (≈ 0.0679 µM)
MIC80 [2]: 0.007 µg/mL (≈ 0.0158 µM)
mice survived at the end of the experiment [3]: 80%

MIC80 [2]: 0.06 µg/mL (≈ 0.137 µM)
melting point: 193 to 197 °C
Compound: [N-]=[N+]=Nc1ccc(C(=O)N/N=C/c2cc(Br)cc(Br)c2O)cc1 [Compound A45, 4-Azido-N′-(3,5-dibromo-2-hydroxybenzylidene)benzohydrazide]

Compound: O=C(N/N=C/c1ccc(Br)cc1O)c1cc(Br)cc(Br)c1O [drawing 79]
A549 [4]: 32 µg/mL
IC80 [5]: 0.06 µg/mL (≈ 0.122 µM)
Killing assay 48H (μg/mL) [6]: Fungistatic
HepG2 [7]: 32 µg/mL

Compound: OC(Cn1cncn1)(Cn1cncn1)c1ccc(F)cc1F [fluconazole, reference compound]
mice survived at the end of the experiment [3]: 30%
